Laboratory results taken from patent US8071540B2, “Virus derived antimicrobial peptides” (priority 2007, dated 2011).

How the values were obtained:
[1] = system: Pseudomonas aeruginosa; test: Bacterial lysis (broth dilution) assay, MBC; type: cell-based; set-up: MBC, Psuedomonas aeruginosa, 0 mM NaCl / MBC, Psuedomonas aeruginosa, 150 mM NaCl: unit not given here; settings: for MBC, Psuedomonas aeruginosa, 0 mM NaCl: 0 mM NaCl (10 mM phosphate buffer); for MBC, Psuedomonas aeruginosa, 0 mM NaCl / MBC, Psuedomonas aeruginosa, 150 mM NaCl: 99.9% killing; for MBC, Psuedomonas aeruginosa, 150 mM NaCl: 150 mM NaCl (physiologic)
[2] = system: Staphylococcus aureus; test: Bacterial lysis (broth dilution) assay, MBC; type: cell-based; settings: 99.9% killing; for MBC, Staphylococcus aureus, 0 mM NaCl: 0 mM NaCl (10 mM phosphate buffer); for MBC, Staphylococcus aureus, 150 mM NaCl: 150 mM NaCl (physiologic)
From the text: The assays for growth inhibition of a microbial target can be used to derive a minimum bactericidal concentration (MBC) value for the peptide, i.e., the concentration of peptide required to kill 99.9% (3-log decrease) of the microbial sample being tested. This value is well known to those in the art as representative of the effectiveness of a particular antimicrobial agent (e.g., an antibiotic) against a particular organism or group of organisms. In assays to detect the MBC of a peptide, growth inhibition of a bacterial population also can be measured with reference to the number of colony forming units (cfu) after exposure to a peptide relative to a control experiment without a peptide.
Bacterial lysis assay. Bacterial lysis assays were conducted in a manner similar to that described previously (Lehrer, R. I., M. E. Selsted, D. Szklarek, and F. J. 1983. Infect. Immun. 42: 10-4, 1983; Miller, M. A., R. F. Garry, J. M. Jaynes, and R. C. Montelaro, AIDS Res Hum Retroviruses 7:511-519, 1991). Bacterial suspensions were cultured in Luria-Bertani Broth to mid-log growth phase and washed by two cycles of centrifugation and suspension in 10 mM phosphate buffer. The Abs600 of the suspension was adjusted with 10 mM phosphate buffer such that, upon dilution, 5-10×10^5 cfu/mL would be treated in the assay. Bacteria were incubated for 1 h with two-fold dilutions of peptides (100 μM to 100 nM) in 96-well plates using 10 mM phosphate buffer, pH 7.2, as a diluent. Ten-fold dilutions of bacteria were performed to 1:1 000; a 100 μl aliquot from each condition was spread on the surface of tryptic soy agar plates (Difco, Detroit, Mich.) which were incubated overnight. Colonies of surviving bacteria (cfu, colony-forming units) were counted and compared to untreated controls to determine the amount of peptide-induced killing under each condition. Log killing is defined as the log of the ratio of cfu present before and after treatment with peptide. The minimal bactericidal concentration, MBC, is the peptide concentration at which 99.9% (three log) killing is achieved (Pearson et al., Antimicrob. Agents Chemother. 18: 699-708, 1980).
Results. Representative gram positive (S. aureus) and gram negative (P. aeruginosa) clinical isolates were used as the index bacteria to survey the peptides described herein.
A limitation of many host-derived antimicrobial peptides is their decreased activity at physiologic (150 mM) NaCl concentration. See Friedrich et al., Antimicrobial Agents and Chemotherapy 43:1542-1548. The peptides WLSA-5 (SEQ ID NO: 3) and LL37 were tested against the two index strains at physiologic NaCl. […] The activity of antimicrobial peptides described herein were compared to an expanded list of clinical bacterial isolates. These are summarized in Table 2 by comparing their MBCs in phosphate buffer alone (low salt) and phosphate buffer containing 150 mM NaCl (physiologic conditions). Inspection of this table would lead one skilled in the art to conclude that the activity of antimicrobial peptides described herein compare favorably to the host derived antimicrobial peptides as it relates to the spectrum and potency of antimicrobial activity.

[3] = system: Methicillin Resistant S. aureus; type: cell-based, Staphylococcus aureus; set-up: unit not given here; settings: 99.9% killing; for MBC, Methicillin Resistant S. aureus, 0 mM NaCl: 0 mM NaCl (10 mM phosphate buffer); for MBC, Methicillin Resistant S. aureus, 150 mM NaCl: 150 mM NaCl (physiologic)

Substance	MBC, Psuedomonas aeruginosa, 0 mM NaCl [1]	MBC, Psuedomonas aeruginosa, 150 mM NaCl [1]	MBC, Staphylococcus aureus, 0 mM NaCl [2]	MBC, Staphylococcus aureus, 150 mM NaCl [2]	MBC, Methicillin Resistant S. aureus, 0 mM NaCl [3]	MBC, Methicillin Resistant S. aureus, 150 mM NaCl [3]	P. aeruginosa killing, influence of physiologic NaCl ([1]; phosphate buffer with 150 mM NaCl versus low salt)
RVVRV VRRWV RR (RVVRVVRRWVRR; Antimicrobial peptide) [WLBU-1]	400	2500	30,000 nM	10,000 nM	50,000	50,000	–
VRRVWRRVVRVVRRWVRRVRRVWRRVVRVV RRWVRR (VRRVWRRVVRVVRRWVRRVRRVWRRVVRVVRRWVRR; Antimicrobial peptide) [WLBU-3]	1500	800	3,000 nM	600 nM	400	100	–
RVVRVVRRWVRRVRRVWRRVVRVVRRWVRRVRRVWRRVVRVVRRWRVV (RVVRVVRRWVRRVRRVWRRVVRVVRRWVRRVRRVWRRVVRVVRRWRVV; Antimicrobial peptide) [WLBU-4]	1500	400	3,000 nM	600 nM	1500	200	–
LL37: human cathelicidin, 37-amino acid amphiphilic a-helical cationic host derived antimicrobial peptide (LLGDFFRKSKEKIGKEFKRIVQRIKDFLRNLVPRTES; Antibacterial peptide LL-37; UniProt P49913 134-170, looked up) [reference compound]	–	–	–	–	–	–	not affected by NaCl inclusion
RVIRVVQRACRAIRHIVRRIRQGLRRIL (RVIRVVQRACRAIRHIVRRIRQGLRRIL; Antimicrobial peptide) [SA-5]	1000	1000	1000 nM	–	–	–	–
RVVRVVRRVVRRVRRVVRRVVRVVRRVVRRVRRVVRRVVRVVRRVVRR [LBU-4]	800	400	800 nM	800 nM	–	–	–
RRVVRRVRRVVRRVVRVVRRVVRRVRRVVRRVVRVVRRVVRR (RRVVRRVRRVVRRVVRVVRRVVRRVRRVVRRVVRVVRRVVRR; Antimicrobial peptide) [LBU-3.5]	400	400	1000 nM	600 nM	1500	200	–
VRRVVRRVVRVVRRVVRRVRRVVRRVVRVV RRVVRR (VRRVVRRVVRVVRRVVRRVRRVVRRVVRVVRRVVRR; Antimicrobial peptide) [LBU-3]	1500	800	1500 nM	1500 nM	–	–	–
RRVVRRVRRVVRRVVRVVRRVVRR [LBU-2]	1500	800	1500 nM	–	–	–	–
